Laboratory results from patent publication US20160355530A1, “HEPATITIS C INHIBITORS AND USES THEREOF” (AbbVie Inc., priority 2010, published 2016).
Like-named read-outs stand apart in the source and are kept apart here.

Tests used:
[1] = test system: HCV 1b-BB7 subgenomic replicon; test: microbe, parasite or virus in culture; type: cell-based, HCV genotype 1b; settings: Hepatitis C virus, stable replicon
[2] = test system: HCV 1a-H77 subgenomic replicon; test: microbe, parasite or virus in culture; type: cell-based, HCV genotype 1a; settings: Hepatitis C virus, stable replicon
[3] = molecular target: T1, HCV NS5B polymerase 1b BK strain (Hepatitis C virus genotype 1b, UniProt P26663); test: HCV NS5B polymerase enzymatic inhibition assay, strain 1b BK; type: biochemical; settings: enzyme, strain 1b BK; read-out: HCV Polymerase Strain 1b BK IC50
T1 construct: six-histidine tag; made in house; host or cells: E. coli
T1 sequence (P26663 2420-2989): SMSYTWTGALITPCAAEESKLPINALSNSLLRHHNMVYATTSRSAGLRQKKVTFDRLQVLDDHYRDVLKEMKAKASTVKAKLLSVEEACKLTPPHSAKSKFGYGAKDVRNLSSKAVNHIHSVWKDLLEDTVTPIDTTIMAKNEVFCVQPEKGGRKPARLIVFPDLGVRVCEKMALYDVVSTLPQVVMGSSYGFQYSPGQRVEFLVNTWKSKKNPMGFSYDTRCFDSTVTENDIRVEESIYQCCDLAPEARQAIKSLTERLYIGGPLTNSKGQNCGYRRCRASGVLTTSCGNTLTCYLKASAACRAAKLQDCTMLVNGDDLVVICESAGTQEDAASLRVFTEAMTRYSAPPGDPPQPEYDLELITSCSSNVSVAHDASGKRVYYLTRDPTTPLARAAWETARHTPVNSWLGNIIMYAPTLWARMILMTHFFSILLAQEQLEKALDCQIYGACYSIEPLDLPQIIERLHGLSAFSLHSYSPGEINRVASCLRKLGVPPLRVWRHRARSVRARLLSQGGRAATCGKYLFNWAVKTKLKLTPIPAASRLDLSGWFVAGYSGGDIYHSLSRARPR
Protocol: (§1) Purified HCV NS5B polymerase enzymes were used for polymerase inhibition assays. All recombinant HCV polymerases contained the first 570 amino acids of the 591 amino acid native protein sequence and a six-histidine tag at the N-terminus or C-terminus to facilitate purification by affinity chromatography. The DNA nucleotide sequence for the HCV polymerase 1b BK strain was codon optimized for expression in E. coli. A synthetic gene was prepared from a series of overlapping oligonucleotides that were filled in using a DNA polymerase and amplified by PCR. The patient isolate HCV polymerases were cloned by RT-PCR methods using HCV RNA extracted from the serum of infected subjects obtained from ProMedDx and BioCollections (genotypes 2a, 2b, 3a, and 4a). Laboratory strains were cloned from plasmid DNA (1a-H77 or 1a-H77-C316Y) or from existing replicon cells (1b Rice). In all cases the amplified DNA was cloned into a protein expression vector (typically a pET vector from Novagen) and then multiple clones were sequenced to identify one whose NS5B sequence agreed with the population sequence. This sequence-confirmed clone was then transfected into E. coli for protein expression and purification. E. coli cultures were grown to a maximum optical density (OD) of 2-3 and then induced with 0.4 mM isopropyl beta-D-thiogalactopyranoside (IPTG) and grown for 20 hours at 20° C.
(§2) Proteins were purified using nickel affinity chromatography, and additional column steps were added including, ion exchange, size exclusion, hydrophobic ion, and poly-U affinity chromatography, as needed, depending on the sample being purified. The template RNA used in the polymerase enzymatic assay was a 2.1 kb construct that corresponds to the 3′-end of an HCV genotype 1b negative strand RNA.
(§3) The reaction was initiated by the addition of 20 μM CTP, 20 μM ATP, 0.284 μM (0.5 μCi) of 5,6-[^3H] UTP, 5 nM template RNA and 0.1 U/μL RNase inhibitor (RNasin, Promega), and allowed to proceed for three hours at 30° C. The final reaction volume was 50 μL. The reaction was terminated by the addition of 50 uL of 4 mM spermine in 10 mM Tris-HCl, pH 7.5, 1 mM EDTA. The quenched reaction was allowed to incubate for at least 15 minutes at room temperature, and then the precipitated RNA was captured by filtration through a glass fiber filter (GF/B, Millipore) in a 96 well format. The filter plate was washed five times with 200 μL of 2 mM spermine, 10 mM Tris-HCl, pH 8.0, 1 mM EDTA, and two times with ethanol. After drying thoroughly in air, 30 μL of Microscint-20 scintillation cocktail (Perkin Elmer) was added to each well, and the retained cpm were determined by scintillation counting. IC50 values were determined by nonlinear regression.
(§4) % Inhibition=100*[[I]/([I]+[IC50])] equation 1
(§5) V=kcat[S]/2(Km+[S])*(sqrt((IC50+I−E)̂2+(4*IC50*E))−(IC50+I−E)) equation 2

[4] = molecular target: T2, HCV NS5B polymerase 1a-H77 (Hepatitis C virus genotype 1a, UniProt P27958); test: biochemical; set-up: species or system HCV genotype 1a; settings: enzyme, strain 1a H77; read-out: HCV Polymerase Strain 1a H77 IC50
T2 construct: six-histidine tag; made in house; host or cells: E. coli
T2 sequence (P27958 2421-2990): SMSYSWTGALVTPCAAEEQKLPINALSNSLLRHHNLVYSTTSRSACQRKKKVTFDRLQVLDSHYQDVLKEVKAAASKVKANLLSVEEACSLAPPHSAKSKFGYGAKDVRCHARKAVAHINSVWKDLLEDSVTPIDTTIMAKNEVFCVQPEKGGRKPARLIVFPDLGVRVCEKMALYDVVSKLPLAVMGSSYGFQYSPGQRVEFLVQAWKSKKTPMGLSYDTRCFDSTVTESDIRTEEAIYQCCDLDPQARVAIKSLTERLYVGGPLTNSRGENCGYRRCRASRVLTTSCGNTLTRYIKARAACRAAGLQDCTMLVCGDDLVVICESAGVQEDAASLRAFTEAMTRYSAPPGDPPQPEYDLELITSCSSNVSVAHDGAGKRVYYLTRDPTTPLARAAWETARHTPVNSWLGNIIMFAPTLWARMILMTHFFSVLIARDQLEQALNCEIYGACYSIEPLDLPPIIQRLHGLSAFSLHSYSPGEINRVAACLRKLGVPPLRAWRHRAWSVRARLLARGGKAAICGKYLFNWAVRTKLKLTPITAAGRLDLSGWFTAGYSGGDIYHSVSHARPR
Protocol: as §1, §2, §3, §4, §5

[5] = strain 1b BB7, 5% FBS, no human plasma, read-out: 1b BB7 5% FBS EC50
[6] = strain 1b BB7, 5% FBS, read-out: 1b BB7 5% FBS EC50
[7] = 5% FBS, absence of human plasma, read-out: Stable Replicon 1a H77 5% FBS EC50
[8] = strain 1a H77, 5% FBS, no human plasma, read-out: 1a H77 5% FBS EC50
[9] = strain 1a H77, 5% FBS, read-out: 1a H77 5% FBS EC50

SMILES | EC50 ([1]; strain 1b BB7, 5% FBS + 40% human plasma, read-out: 1b BB7 5% FBS + 40% Human Plasma EC50) [µM] | EC50 [1, 5] [µM] | EC50 [1, 6] [µM] | EC50 [2, 7] [µM] | EC50 ([2]; strain 1a H77, 5% FBS + 40% human plasma, read-out: 1a H77 5% FBS + 40% Human Plasma EC50) [µM] | EC50 [2, 8] [µM] | EC50 [2, 9] [µM] | IC50 [3] [µM] | IC50 [4] [µM]
CC(C)(C)[Si](C)(C)OCCCCN(c1cc2oc(-c3ccc(F)cc3)c(-c3ncc[nH]3)c2cc1C1CC1)S(C)(=O)=O [Example 42, N-(4-{[tert-butyl(dimethyl)silyl]oxy}butyl)-N-[5-cyclopropyl-2-(4-fluorophenyl)-3-(1H-imidazol-2-yl)-1-benzofuran-6-yl]methanesulfonamide] | 3.39 | 0.119 | 0.119 | 0.214 | 7.41 | 0.214 | 0.214 | 0.781 | 0.083
CS(=O)(=O)N(CN1C(=O)c2ccccc2C1=O)c1cc2oc(-c3ccc(F)cc3)c(-c3ncc[nH]3)c2cc1C1CC1 [Example 82, N-[5-cyclopropyl-2-(4-fluorophenyl)-3-(1H-imidazol-2-yl)-1-benzofuran-6-yl]-N-[(1,3-dioxo-1,3-dihydro-2H-isoindol-2-yl)methyl]methanesulfonamide] |  | 1.58 | 1.58 | 2.63 |  | 2.63 | 2.63 | 3 | 0.35
CC(C)CCN(c1cc2oc(-c3ccc(F)cc3)c(C3=NOC(C)(C)N3)c2cc1C1CC1)S(C)(=O)=O [Example 152, N-[5-cyclopropyl-3-(5,5-dimethyl-4,5-dihydro-1,2,4-oxadiazol-3-yl)-2-(4-fluorophenyl)-1-benzofuran-6-yl]-N-(3-methylbutyl)methanesulfonamide] |  | 10 | 10 | 10 |  | 10 | 10 | 3.6 | 0.118
CCCc1nc(-c2c(-c3ccc(F)cc3)oc3cc(N(CCC(C)C)S(C)(=O)=O)c(C4CC4)cc23)no1 [Example 153, N-[5-cyclopropyl-2-(4-fluorophenyl)-3-(5-propyl-1,2,4-oxadiazol-3-yl)-1-benzofuran-6-yl]-N-(3-methylbutyl)methanesulfonamide] |  |  |  |  |  |  |  | 200 | 179
CCCC1NC(c2c(-c3ccc(F)cc3)oc3cc(N(CCC(C)C)S(C)(=O)=O)c(C4CC4)cc23)=NO1 (centres unmarked) [Example 154, N-[5-cyclopropyl-2-(4-fluorophenyl)-3-(5-propyl-4,5-dihydro-1,2,4-oxadiazol-3-yl)-1-benzofuran-6-yl]-N-(3-methylbutyl)methanesulfonamide] |  |  |  |  |  |  |  | 63.3 | 21.3
CS(=O)(=O)Nc1cc2oc(-c3ccc(F)cc3)c(-c3nc(Br)c(Br)[nH]3)c2cc1C1CC1 [Example 165, N-[5-cyclopropyl-3-(4,5-dibromo-1H-imidazol-2-yl)-2-(4-fluorophenyl)-1-benzofuran-6-yl]methanesulfonamide] |  |  |  |  |  |  |  | 2.7 | 1.5
Cc1ccc(C)n1-c1ccc2c(-c3ncc[nH]3)c(-c3ccccc3)oc2c1 [Example 166, 2-[6-(2,5-dimethyl-1H-pyrrol-1-yl)-2-phenyl-1-benzofuran-3-yl]-1H-imidazole] |  |  |  |  |  |  |  | 7 | 1.6
COc1ccc(CN(c2cc3oc(-c4ccc(F)cc4)c(-c4nc(C)c(C)[nH]4)c3cc2C2CC2)S(C)(=O)=O)cc1 [Example 186, N-[5-cyclopropyl-3-(4,5-dimethyl-1H-imidazol-2-yl)-2-(4-fluorophenyl)-1-benzofuran-6-yl]-N-(4-methoxybenzyl)methanesulfonamide] |  |  |  |  |  |  |  | 4.5 | 4.5
Cc1nc(-c2c(-c3ccc(F)cc3)oc3cc(NS(C)(=O)=O)c(C4CC4)cc23)[nH]c1C [Example 192, N-[5-cyclopropyl-3-(4,5-dimethyl-1H-imidazol-2-yl)-2-(4-fluorophenyl)-1-benzofuran-6-yl]methanesulfonamide] |  |  |  |  |  |  |  | 18 | 10.3
